Where two headings read alike, the source gives them in different places.
How the values were obtained:
Experiment in all cases: Kinase inhibition profile (HTRF / ADP Glo kinase assay)
Format in all cases: biochemical
[1] = biological target: p38α (Homo sapiens (Human), UniProt Q16539)
Experimental: (§1) HTRF kinase assay: 2×ATP and substrate solution as well as 2× kinase and metal solution were prepared with assay buffer. 25 nL of compound was transferred to 384-well assay plate by Echo 655. After centrifugation, 2.5 μL of 2× kinase/metal ion solution was added to the 384-well assay plate followed by incubation at 25° C. for 10 min. 2.5 μL of 2× substrate and ATP solution was added to the wells followed by incubation at 25° C. for 60 min. 2× XL665 and antibody solution was prepared with assay buffer. 5 μL of kinase detection reagent was added to the wells followed by incubation at 25° C. for 60 min. Fluorescence signals at 620 nm (Cryptate) and 665 nm (XL665) were read with a microtiter plate reader. ADP Glo kinase assay: 2×ATP and substrate solution as well as 2× kinase and metal solution were prepared with assay buffer. 20 nL of compound was transferred to 384-well assay plate by Echo 655. 2 μL of 2× kinase/metal ion solution was added followed by incubation at 25° C. for 10 min in the 384-well assay plate. 2 μL of 2× substrate and ATP solution was added to the wells followed by incubation at 25° C. for 60 min. 4 μL of ADP Glo reagent was added to the wells followed by incubation at 25° C. for 40 min. 8 μL of kinase test reagent was added to the wells followed by incubation at 25° C. for 40 min. The luminescence signals were recorded on a microtiter plate reader. Data analysis: the reaction control (0.5% DMSO) reading was set to 0% inhibition, and the background (10 μM positive control) reading was set to 100% inhibition, then the percent inhibition for each test solution was calculated and the results are shown in Table 2 and FIG. 3.

[2] = biological target: AurB (Homo sapiens (Human), UniProt Q96GD4)
Experimental: as §1

[3] = biological target: p70S6K (Homo sapiens (Human), UniProt P23443)
Experimental: as §1

[4] = biological target: AKT1 (Homo sapiens (Human), UniProt P31749)
Experimental: as §1

[5] = biological target: PAK2 (Homo sapiens (Human), UniProt Q13177)
Experimental: as §1

[6] = biological target: GSK3β (Homo sapiens (Human), UniProt P49841)
Experimental: as §1

[7] = biological target: PKCα (Homo sapiens (Human), UniProt P17252)
Experimental: as §1

[8] = biological target: HPK1 (Homo sapiens (Human), UniProt Q92918)
Experimental: as §1

[9] = biological target: PKD2 (Homo sapiens (Human), UniProt Q9BZL6)
Experimental: as §1

[10] = biological target: CHK1 (Homo sapiens (Human), UniProt O14757)
Experimental: as §1

[11] = biological target: SRC (Homo sapiens (Human), UniProt P12931)
Experimental: as §1

[12] = biological target: CK1α (Homo sapiens (Human), UniProt P48729)
Experimental: as §1

[13] = biological target: BRSK2 (Homo sapiens (Human), UniProt Q8IWQ3)
Experimental: as §1

[14] = biological target: PLK1 (Homo sapiens (Human), UniProt P53350)
Experimental: as §1

[15] = biological target: ITK (Homo sapiens (Human), UniProt Q08881)
Experimental: as §1

[16] = biological target: HIPK1 (Homo sapiens (Human), UniProt Q86Z02)
Experimental: as §1

[17] = biological target: TIE2 (Homo sapiens (Human), UniProt Q02763)
Experimental: as §1

[18] = biological target: ABL1 (Homo sapiens (Human), UniProt P00519)
Experimental: as §1

[19] = biological target: CK2α1/β (Homo sapiens (Human), UniProt P68400)
Experimental: as §1

[20] = biological target: DYRK1B (Homo sapiens (Human), UniProt Q9Y463)
Experimental: as §1

[21] = biological target: LCK (Homo sapiens (Human), UniProt P06239)
Experimental: as §1

[22] = biological target: NEK1 (Homo sapiens (Human), UniProt Q96PY6)
Experimental: as §1

[23] = 1 uM Compound C1, read-out: % Inhibition (First measurement)
[24] = 1 uM Compound C1, read-out: % Inhibition (Second measurement)
[25] = 1 uM Compound C1, read-out: Average inhibition (%)

CK2α1/β, sequence (P68400 whole entry): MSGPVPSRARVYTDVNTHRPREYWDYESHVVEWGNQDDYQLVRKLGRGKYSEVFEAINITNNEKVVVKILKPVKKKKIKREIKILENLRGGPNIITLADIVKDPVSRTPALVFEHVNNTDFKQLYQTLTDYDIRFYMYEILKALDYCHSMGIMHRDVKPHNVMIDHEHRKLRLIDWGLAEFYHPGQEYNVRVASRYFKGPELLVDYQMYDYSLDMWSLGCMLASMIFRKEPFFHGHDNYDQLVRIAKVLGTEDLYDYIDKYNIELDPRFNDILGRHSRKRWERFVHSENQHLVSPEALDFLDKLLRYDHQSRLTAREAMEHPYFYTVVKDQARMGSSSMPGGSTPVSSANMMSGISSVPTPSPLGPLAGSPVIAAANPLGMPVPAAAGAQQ
CK2α1/β, sequence (P67870 whole entry partner): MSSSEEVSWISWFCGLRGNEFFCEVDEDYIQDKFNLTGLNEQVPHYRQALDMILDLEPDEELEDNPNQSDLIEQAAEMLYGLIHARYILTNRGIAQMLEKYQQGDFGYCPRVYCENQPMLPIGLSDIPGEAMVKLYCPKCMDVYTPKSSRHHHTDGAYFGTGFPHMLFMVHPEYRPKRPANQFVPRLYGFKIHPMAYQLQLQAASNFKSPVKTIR
AurB, sequence (Q96GD4 whole entry): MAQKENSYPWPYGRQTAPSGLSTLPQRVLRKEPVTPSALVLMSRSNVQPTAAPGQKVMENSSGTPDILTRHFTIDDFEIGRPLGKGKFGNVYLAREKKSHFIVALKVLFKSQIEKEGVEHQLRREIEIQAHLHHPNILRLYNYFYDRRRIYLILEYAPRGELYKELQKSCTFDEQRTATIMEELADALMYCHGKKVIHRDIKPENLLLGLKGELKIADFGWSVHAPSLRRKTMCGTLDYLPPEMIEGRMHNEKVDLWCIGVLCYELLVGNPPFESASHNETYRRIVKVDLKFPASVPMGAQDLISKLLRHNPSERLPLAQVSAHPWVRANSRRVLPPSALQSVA
ITK, sequence (Q08881 whole entry, species assumed): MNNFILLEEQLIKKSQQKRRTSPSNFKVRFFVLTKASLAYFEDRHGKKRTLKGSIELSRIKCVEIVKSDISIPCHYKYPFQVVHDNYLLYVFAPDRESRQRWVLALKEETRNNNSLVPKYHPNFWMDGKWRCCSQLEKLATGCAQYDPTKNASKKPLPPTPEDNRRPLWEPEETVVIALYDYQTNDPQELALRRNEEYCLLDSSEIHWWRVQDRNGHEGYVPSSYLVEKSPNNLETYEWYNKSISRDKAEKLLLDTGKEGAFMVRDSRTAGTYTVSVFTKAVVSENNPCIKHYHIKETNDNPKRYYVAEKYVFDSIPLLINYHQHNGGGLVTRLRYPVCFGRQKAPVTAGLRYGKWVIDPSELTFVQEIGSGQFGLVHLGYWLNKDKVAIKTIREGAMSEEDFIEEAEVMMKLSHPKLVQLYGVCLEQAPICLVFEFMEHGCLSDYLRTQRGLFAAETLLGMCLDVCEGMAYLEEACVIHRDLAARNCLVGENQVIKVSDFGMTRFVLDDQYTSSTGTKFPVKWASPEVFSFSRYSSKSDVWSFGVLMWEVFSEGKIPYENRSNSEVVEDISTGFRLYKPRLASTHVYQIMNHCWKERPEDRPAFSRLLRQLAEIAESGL
NEK1, sequence (Q96PY6 whole entry, species assumed): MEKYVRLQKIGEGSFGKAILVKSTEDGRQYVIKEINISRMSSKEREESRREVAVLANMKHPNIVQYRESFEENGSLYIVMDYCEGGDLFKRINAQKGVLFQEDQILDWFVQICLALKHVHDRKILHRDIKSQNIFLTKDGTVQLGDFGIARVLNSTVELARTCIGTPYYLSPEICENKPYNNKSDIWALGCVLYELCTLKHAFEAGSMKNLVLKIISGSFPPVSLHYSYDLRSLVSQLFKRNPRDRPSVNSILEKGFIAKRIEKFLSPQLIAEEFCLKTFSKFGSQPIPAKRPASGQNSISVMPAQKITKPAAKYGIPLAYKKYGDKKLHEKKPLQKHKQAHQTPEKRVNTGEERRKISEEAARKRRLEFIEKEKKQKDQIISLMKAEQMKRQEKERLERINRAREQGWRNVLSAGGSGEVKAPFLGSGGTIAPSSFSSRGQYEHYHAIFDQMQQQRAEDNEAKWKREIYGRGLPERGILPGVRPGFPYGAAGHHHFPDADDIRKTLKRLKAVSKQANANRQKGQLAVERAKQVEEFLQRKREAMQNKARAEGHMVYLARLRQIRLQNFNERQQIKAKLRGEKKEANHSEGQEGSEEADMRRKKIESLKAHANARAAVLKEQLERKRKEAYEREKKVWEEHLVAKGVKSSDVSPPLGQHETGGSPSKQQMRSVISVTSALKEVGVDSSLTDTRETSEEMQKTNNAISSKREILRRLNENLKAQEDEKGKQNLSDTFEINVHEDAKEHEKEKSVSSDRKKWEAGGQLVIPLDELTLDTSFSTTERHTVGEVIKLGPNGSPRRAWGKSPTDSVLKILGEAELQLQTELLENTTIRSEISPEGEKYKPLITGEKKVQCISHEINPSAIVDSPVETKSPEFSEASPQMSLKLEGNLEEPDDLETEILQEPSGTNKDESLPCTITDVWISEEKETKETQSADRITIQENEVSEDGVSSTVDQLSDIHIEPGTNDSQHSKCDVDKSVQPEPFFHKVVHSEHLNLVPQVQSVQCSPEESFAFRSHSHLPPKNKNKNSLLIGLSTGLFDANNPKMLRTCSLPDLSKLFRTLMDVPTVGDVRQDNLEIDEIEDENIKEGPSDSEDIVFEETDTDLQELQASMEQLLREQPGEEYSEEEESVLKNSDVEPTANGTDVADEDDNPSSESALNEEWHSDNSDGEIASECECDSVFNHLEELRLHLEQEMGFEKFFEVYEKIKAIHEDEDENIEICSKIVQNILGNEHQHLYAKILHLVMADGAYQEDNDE
HPK1, sequence (Q92918 whole entry, species assumed): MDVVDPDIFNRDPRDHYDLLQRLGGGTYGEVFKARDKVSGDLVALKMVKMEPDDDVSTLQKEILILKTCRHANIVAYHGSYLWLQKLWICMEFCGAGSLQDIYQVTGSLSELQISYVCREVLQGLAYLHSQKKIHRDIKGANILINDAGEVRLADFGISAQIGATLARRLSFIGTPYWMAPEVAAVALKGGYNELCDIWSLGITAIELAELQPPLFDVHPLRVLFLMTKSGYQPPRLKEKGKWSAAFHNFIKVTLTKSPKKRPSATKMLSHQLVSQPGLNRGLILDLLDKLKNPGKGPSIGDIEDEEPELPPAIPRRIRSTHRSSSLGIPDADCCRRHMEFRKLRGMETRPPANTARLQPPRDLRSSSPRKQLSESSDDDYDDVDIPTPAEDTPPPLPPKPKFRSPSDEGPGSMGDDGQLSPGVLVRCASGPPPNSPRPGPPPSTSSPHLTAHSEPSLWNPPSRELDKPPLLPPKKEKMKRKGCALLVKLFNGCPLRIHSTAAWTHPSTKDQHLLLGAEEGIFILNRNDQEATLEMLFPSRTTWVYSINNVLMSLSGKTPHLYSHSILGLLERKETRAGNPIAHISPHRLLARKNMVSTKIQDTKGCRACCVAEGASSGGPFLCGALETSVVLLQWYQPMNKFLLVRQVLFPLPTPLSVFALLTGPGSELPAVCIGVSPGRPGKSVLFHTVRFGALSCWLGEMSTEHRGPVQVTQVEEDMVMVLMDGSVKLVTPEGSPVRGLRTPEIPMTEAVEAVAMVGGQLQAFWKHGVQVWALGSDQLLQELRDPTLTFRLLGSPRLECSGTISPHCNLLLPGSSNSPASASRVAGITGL
LCK, sequence (P06239 whole entry, species assumed): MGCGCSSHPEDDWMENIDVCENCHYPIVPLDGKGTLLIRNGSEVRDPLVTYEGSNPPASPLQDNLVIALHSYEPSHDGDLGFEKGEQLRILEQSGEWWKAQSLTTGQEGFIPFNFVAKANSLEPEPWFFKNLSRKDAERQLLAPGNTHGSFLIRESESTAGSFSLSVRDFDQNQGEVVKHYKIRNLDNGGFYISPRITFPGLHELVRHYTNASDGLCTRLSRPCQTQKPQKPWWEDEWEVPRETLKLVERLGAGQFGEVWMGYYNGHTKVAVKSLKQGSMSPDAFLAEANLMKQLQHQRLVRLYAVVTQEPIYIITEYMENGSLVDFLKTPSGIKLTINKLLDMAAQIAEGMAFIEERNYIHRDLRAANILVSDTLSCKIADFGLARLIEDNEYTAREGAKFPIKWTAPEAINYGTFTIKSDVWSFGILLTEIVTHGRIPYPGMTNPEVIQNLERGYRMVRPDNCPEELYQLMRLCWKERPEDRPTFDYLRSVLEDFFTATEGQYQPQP
PKD2, sequence (Q9BZL6 whole entry): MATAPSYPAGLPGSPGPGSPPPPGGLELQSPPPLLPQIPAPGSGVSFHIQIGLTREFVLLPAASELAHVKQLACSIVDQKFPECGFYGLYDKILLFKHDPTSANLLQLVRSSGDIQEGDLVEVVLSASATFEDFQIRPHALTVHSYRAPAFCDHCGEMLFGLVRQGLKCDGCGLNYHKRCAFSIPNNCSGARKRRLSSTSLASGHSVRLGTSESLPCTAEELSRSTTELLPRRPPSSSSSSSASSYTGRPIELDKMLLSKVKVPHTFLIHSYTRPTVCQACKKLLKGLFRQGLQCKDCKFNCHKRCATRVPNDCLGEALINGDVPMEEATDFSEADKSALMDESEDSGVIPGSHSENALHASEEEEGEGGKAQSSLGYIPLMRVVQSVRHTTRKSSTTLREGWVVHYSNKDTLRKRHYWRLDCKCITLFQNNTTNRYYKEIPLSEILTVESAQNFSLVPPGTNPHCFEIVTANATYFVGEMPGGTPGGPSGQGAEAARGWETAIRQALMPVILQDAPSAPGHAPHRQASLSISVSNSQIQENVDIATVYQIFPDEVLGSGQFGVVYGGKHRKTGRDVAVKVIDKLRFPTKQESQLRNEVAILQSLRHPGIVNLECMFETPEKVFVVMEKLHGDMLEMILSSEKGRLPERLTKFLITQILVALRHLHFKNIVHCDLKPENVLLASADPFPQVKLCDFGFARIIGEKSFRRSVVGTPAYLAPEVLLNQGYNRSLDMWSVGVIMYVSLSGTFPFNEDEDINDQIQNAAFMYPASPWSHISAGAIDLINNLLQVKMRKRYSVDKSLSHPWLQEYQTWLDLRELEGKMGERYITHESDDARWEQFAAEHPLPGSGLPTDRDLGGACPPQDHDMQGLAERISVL

- inhibition at 1 µM [1, 23]: 3.39%
- inhibition at 1 µM [1, 24]: -3.27%
- inhibition at 1 µM [1, 25]: 0.06%
- inhibition at 1 µM [2, 23]: 19.7%
- inhibition at 1 µM [2, 24]: 13.3%
- inhibition at 1 µM [2, 25]: 16.5%
- inhibition at 1 µM [3, 23]: 0.46%
- inhibition at 1 µM [3, 24]: -0.19%
- inhibition at 1 µM [3, 25]: 0.14%
- inhibition at 1 µM [4, 23]: 7.17%
- inhibition at 1 µM [4, 24]: 4.56%
- inhibition at 1 µM [4, 25]: 5.87%
- inhibition at 1 µM [5, 23]: 2.23%
- inhibition at 1 µM [5, 24]: 12.1%
- inhibition at 1 µM [5, 25]: 7.17%
- inhibition at 1 µM [6, 23]: 0.83%
- inhibition at 1 µM [6, 24]: 7.83%
- inhibition at 1 µM [6, 25]: 4.33%
- inhibition at 1 µM [7, 23]: -1.67%
- inhibition at 1 µM [7, 24]: -17.2%
- inhibition at 1 µM [7, 25]: -9.44%
- inhibition at 1 µM [8, 23]: 23.9%
- inhibition at 1 µM [8, 24]: 24.7%
- inhibition at 1 µM [8, 25]: 24.3%
- inhibition at 1 µM [9, 23]: -7.86%
- inhibition at 1 µM [9, 24]: -6.58%
- inhibition at 1 µM [9, 25]: -7.22%
- inhibition at 1 µM [10, 23]: -10.6%
- inhibition at 1 µM [10, 24]: -13.6%
- inhibition at 1 µM [10, 25]: -12.1%
- inhibition at 1 µM [11, 23]: -0.76%
- inhibition at 1 µM [11, 24]: -1.13%
- inhibition at 1 µM [11, 25]: -0.94%
- inhibition at 1 µM [12, 23]: 5.8%
- inhibition at 1 µM [12, 24]: -5.89%
- inhibition at 1 µM [12, 25]: -0.04%
- inhibition at 1 µM [13, 23]: 0.46%
- inhibition at 1 µM [13, 24]: -0.94%
- inhibition at 1 µM [13, 25]: -0.24%
- inhibition at 1 µM [14, 23]: 24.1%
- inhibition at 1 µM [14, 24]: 20.6%
- inhibition at 1 µM [14, 25]: 22.4%
- inhibition at 1 µM [15, 23]: -3.82%
- inhibition at 1 µM [15, 24]: -19.2%
- inhibition at 1 µM [15, 25]: -11.5%
- inhibition at 1 µM [16, 23]: 6.91%
- inhibition at 1 µM [16, 24]: 4.17%
- inhibition at 1 µM [16, 25]: 5.54%
- inhibition at 1 µM [17, 23]: -5.65%
- inhibition at 1 µM [17, 24]: 6.2%
- inhibition at 1 µM [17, 25]: 0.28%
- inhibition at 1 µM [18, 23]: 43.2%
- inhibition at 1 µM [18, 24]: 50.7%
- inhibition at 1 µM [18, 25]: 47%
- inhibition at 1 µM [19, 23]: -5.19%
- inhibition at 1 µM [19, 24]: 5.01%
- inhibition at 1 µM [19, 25]: -0.09%
- inhibition at 1 µM [20, 23]: 4.14%
- inhibition at 1 µM [20, 24]: 9.03%
- inhibition at 1 µM [20, 25]: 6.58%
- inhibition at 1 µM [21, 23]: 7.39%
- inhibition at 1 µM [21, 24]: -6.87%
- inhibition at 1 µM [21, 25]: 0.26%
- inhibition at 1 µM [22, 23]: 14.6%
- inhibition at 1 µM [22, 24]: 8.97%
- inhibition at 1 µM [22, 25]: 11.8%
SMILES: Cc1ccc(C(=O)Nc2ccccn2)cc1C#Cc1cnc2cc(C3=CCCCC3)cnn12 [Compound C1, 3-{2-[7-(cyclohex-1-en-1-yl)imidazo[1,2-b]pyridazin-3-yl]ethynyl}-4-methyl-N-(pyridin-2-yl)benzamide]
